In patent publication US20170166555A1, “FUNCTIONALISED AND SUBSTITUTED INDOLES AS ANTI-CANCER AGENTS” (Novogen Limited, priority 2013, published 2017):
Read-outs that look alike come from different tables or passages of the source.

Columns and labels:
Type in all cases: cell-based
[1] = tested on: melanoma (SK-Mel-28) cells; assay: Cell viability assay (MTT, 48 hr); conditions: Homo sapiens, 48 hr treatment, read-out: IC50 (μM) SKMEL28
Method: (§1) Cell viability assays were also conducted to assess the anti-proliferative effects of the anti-tropomyosin compounds 4001-4015. Briefly, cells (1×10^3/well) were plated (96-well) and treated (48 hr) with anti-tropomyosin drug and viability measured using 3-(4,5-dimethylthiazol-2-yl)-2,5-diphenylterazolium bromide MTT. Cell viability was normalized to control (vehicle alone) and dose-response curves, and half maximal effective concentration (EC50) values were determined using Graph Pad Prism 5 (nonlinear regression sigmoidal dose-response variable slope).

[2] = tested on: neuroblastoma (SH-EP) cells; assay: Cell viability assay (MTT, 48 hr); conditions: 48 hr treatment, read-out: IC50 (μM) SHEP
Method: as §1

[3] = tested on: A549 non-small cell lung carcinoma cells; assay: Anti-proliferative assay, cell-titre luminescent reagent, 72 h (GVK-BIO); conditions: Homo sapiens, read-out: IC50/μM Lung (NSLC) A549
Summary of the method: (§2)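 Two dose schemes were used: 30, 3, 0.3, 0.03 μM, giving IC50 by linear regression of percent of control against log concentration; and 30, 10, 3, 1, 0.3, 0.1 μM, giving EC50 by nonlinear variable-slope regression after normalizing to vehicle. Cells had attached for 24 h beforehand.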

[4] = tested on: CaCo2 colorectal cancer cells; assay: as above; conditions: Homo sapiens
Summary of the method: as §2

[5] = tested on: DU145 prostate cancer cells; assay: as above; conditions: Homo sapiens
Summary of the method: as §2

[6] = tested on: MDA-MB-231 triple negative breast cancer cells; assay: as above; conditions: Homo sapiens
Summary of the method: as §2

[7] = tested on: PC3 prostate cancer cells; assay: as above
Summary of the method: as §2

SK-Mel-28 melanoma cells = assay: as above; conditions: Homo sapiens
Summary of the method: as §2

[8] = tested on: SK-N-SH neuroblastoma cells; assay: as above; conditions: Homo sapiens
Summary of the method: as §2

[9] = A549, 72 h, 30, 10, 3, 1, 0.3 and 0.1 μM, nonlinear regression (Table 5)
[10] = Caco-2, 72 h, 30, 10, 3, 1, 0.3 and 0.1 μM, nonlinear regression (Table 5)
[11] = DU-145, 72 h, 30, 10, 3, 1, 0.3 and 0.1 μM, nonlinear regression (Table 5)
[12] = MDA-MB-231, 72 h, 30, 10, 3, 1, 0.3 and 0.1 μM, nonlinear regression (Table 5)
[13] = 30, 10, 3, 1, 0.3 and 0.1 μM, nonlinear regression (Table 5)
[14] = SK-MEL-28, 72 h, 30, 10, 3, 1, 0.3 and 0.1 μM, nonlinear regression (Table 5)
[15] = SK-N-SH, 30, 10, 3, 1, 0.3 and 0.1 μM, nonlinear regression (Table 5)
[16] = A549, 72 h, 30, 3, 0.3 and 0.03 μM, linear regression (Tables 2-4)
[17] = Caco-2, 72 h, 30, 3, 0.3 and 0.03 μM, linear regression (Tables 2-4)
[18] = DU-145, 72 h, 30, 3, 0.3 and 0.03 μM, linear regression (Tables 2-4)
[19] = MDA-MB-231, 72 h, 30, 3, 0.3 and 0.03 μM, linear regression (Tables 2-4)
[20] = 30, 3, 0.3 and 0.03 μM, linear regression (Tables 2-4)
[21] = SK-MEL-28, 72 h, 30, 3, 0.3 and 0.03 μM, linear regression (Tables 2-4)
[22] = SK-N-SH, 30, 3, 0.3 and 0.03 μM, linear regression (Tables 2-4)

Structure (SMILES)	IC50 [1]	IC50 [2]	IC50 [3, 9]	IC50 [4, 10]	IC50 [5, 11]	IC50 [6, 12]	IC50 [7, 13]	IC50 (SK-Mel-28 melanoma cells; [14])	IC50 [8, 15]	IC50 [3, 16]	IC50 [4, 17]	IC50 [5, 18]	IC50 [6, 19]	IC50 [7, 20]	IC50 (SK-Mel-28 melanoma cells; [21])	IC50 [8, 22]
CN(C)CCCn1ccc2cc(Oc3ccc(C(=O)Nc4ccccc4)cc3)ccc21 [Compound 4002, 4-((1-(3-(dimethylamino)propyl)-1H-indol-5-yl)oxy)-N-phenylbenzamide]	7.04 µM	9.24 µM	16.3 µM	13.1 µM	37.4 µM	15.7 µM	12.4 µM	9.3 µM	3.2 µM							
CN(C)CCCn1ccc2cc(-c3cnn(Cc4ccccc4)c3)ccc21 [Compound 4003, 3-(5-(1-benzyl-1H-pyrazol-4-yl)-1H-indol-1-yl)-N,N-dimethylpropan-1-amine]	25.9 µM															
CC(c1ccccc1)n1cc(-c2ccc3c(ccn3CCCN(C)C)c2)cn1 (stereo not shown) [Compound 4004, N,N-dimethyl-3-(5-(1-(1-phenylethyl)-1H-pyrazol-4-yl)-1H-indol-1-yl)propan-1-amine]	9.8 µM	6.7 µM														
CN(C)CCCn1ccc2cc(-c3cnn(CC4CCN(C)CC4)c3)ccc21 [Compound 4005, N,N-dimethyl-3-(5-(1-((1-methylpiperidin-4-yl)methyl)-1H-pyrazol-4-yl)-1H-indol-1-yl)propan-1-amine]	53.8 µM	5.4 µM														
CN(C)CCCn1ccc2cc(-c3cnn(CC4CCOCC4)c3)ccc21 [Compound 4006, N,N-dimethyl-3-(5-(1-((tetrahydro-2H-pyran-4-yl)methyl)-1H-pyrazol-4-yl)-1H-indol-1-yl)propan-1-amine]		107 µM														
CN(C)CCCn1ccc2cc(Cc3cccc(C(=O)Nc4ccccc4)c3)ccc21 [Compound 4008]	3.4 µM	2.7 µM								3.8 µM	5.8 µM	3.3 µM	3.9 µM	4.3 µM	3.3 µM	9.3 µM
Cc1c(C)n(CCCN(C)C)c2ccc(-c3cnn(Cc4ccccc4)c3)cc12 [Compound 4009, 3-(5-(1-benzyl-1H-pyrazol-4-yl)-2,3-dimethyl-1H-indol-1-yl)-N,N-dimethylpropan-1-amine]	5.4 µM	3 µM														
Cc1c(C)n(CCCN(C)C)c2ccc(Nc3cccc(C(=O)Nc4ccccc4)c3)cc12 [Compound 4011, 3-((1-(3-(dimethylamino)propyl)-2,3-dimethyl-1H-indol-5-yl)amino)-N-phenylbenzamide]	9.7 µM	8.7 µM								3 µM	2.8 µM	3.3 µM	2.5 µM	4.3 µM	6.1 µM	2.5 µM
CN(C)CCCn1ccc2cc(Nc3cccc(C(=O)Nc4ccccc4)c3)ccc21 [Compound 4013, 3-((1-(3-(dimethylamino)propyl)-1H-indol-5-yl)amino)-N-phenylbenzamide]	15.8 µM	14.5 µM								7.6 µM	> 30 µM	> 30 µM	3.7 µM	> 30 µM	9.2 µM	4.2 µM

Results, then the compound that gave them:

IC50 [1]	IC50 [2]	IC50 [3, 9]	IC50 [4, 10]	IC50 [5, 11]	IC50 [6, 12]	IC50 [7, 13]	IC50 (SK-Mel-28 melanoma cells; [14])	IC50 [8, 15]	IC50 [3, 16]	IC50 [4, 17]	IC50 [5, 18]	IC50 [6, 19]	IC50 [7, 20]	IC50 (SK-Mel-28 melanoma cells; [21])	IC50 [8, 22]	Structure (SMILES)
									23 µM	> 30 µM	> 30 µM	> 30 µM	> 30 µM	17.7 µM	13.8 µM	Cc1c(C)n(CCCN2CCN(C)CC2)c2ccc(C(=O)N3CCN(CCc4ccc(F)cc4)CC3)cc12 [Compound 4120, (2,3-dimethyl-1-(3-(4-methylpiperazin-1-yl)propyl)-1H-indol-5-yl)(4-(4-fluorophenethyl)piperazin-1-yl)methanone]
									15.7 µM	> 30 µM	> 30 µM	13.2 µM	> 30 µM	14.7 µM	13.6 µM	COc1ccc(CCN2CCN(C(=O)c3ccc4c(c3)c(C)c(C)n4CCCN3CCN(C)CC3)CC2)cc1 [Compound 4121, (2,3-dimethyl-1-(3-(4-methylpiperazin-1-yl)propyl)-1H-indol-5-yl)(4-(4-methoxyphenethyl)piperazin-1-yl)methanone]
		> 30 µM	> 30 µM	> 30 µM	> 30 µM	> 30 µM	> 30 µM	> 30 µM								Cc1c(C)n(CCCN2CCN(C)CC2)c2ccc(C(=O)N3CCN(CCc4ccc(O)cc4)CC3)cc12 [Compound 4122, (2,3-dimethyl-1-(3-(4-methylpiperazin-1-yl)propyl)-1H-indol-5-yl)(4-(4-hydroxyphenethyl)piperazin-1-yl)methanone]
									15.6 µM	> 30 µM	> 30 µM	16.3 µM	> 30 µM	16.8 µM	12.3 µM	Cc1c(C)n(CCCN2CCN(C)CC2)c2ccc(C(=O)N3CCN(CCc4ccc5c(c4)OCO5)CC3)cc12 [Compound 4123, (4-(2-(benzo[d][1,3]dioxol-5-yl)ethyl)piperazin-1-yl)(2,3-dimethyl-1-(3-(4-methylpiperazin-1-yl)propyl)-1H-indol-5-yl)methanone]
									15 µM	29.6 µM	> 30 µM	13.9 µM	21.8 µM	15.9 µM	10.9 µM	Cc1c(C)n(CCCN2CCN(C)CC2)c2ccc(C(=O)N3CCN(CCc4cccc(F)c4)CC3)cc12 [Compound 4124, (2,3-dimethyl-1-(3-(4-methyl piperazin-1-yl)propyl)-1H-indol-5-yl)(4-(3-fluorophenethyl)piperazin-1-yl)methanone]
									19.4 µM	> 30 µM	> 30 µM	33.2 µM	> 30 µM	25 µM	14.9 µM	COc1cccc(CCN2CCN(C(=O)c3ccc4c(c3)c(C)c(C)n4CCCN3CCN(C)CC3)CC2)c1 [Compound 4125, (2,3-dimethyl-1-(3-(4-methylpiperazin-1-yl)propyl)-1H-indol-5-yl)(4-(3-methoxyphenethyl)piperazin-1-yl)methanone]
		> 30 µM	> 30 µM	> 30 µM	> 30 µM	> 30 µM	> 30 µM	> 30 µM								Cc1c(C)n(CCCN2CCN(C)CC2)c2ccc(C(=O)N3CCN(CCc4cccc(O)c4)CC3)cc12 [Compound 4126, (2,3-dimethyl-1-(3-(4-methylpiperazin-1-yl)propyl)-1H-indol-5-yl)(4-(3-hydroxyphenethyl)piperazin-1-yl)methanone]
									13.1 µM	10.7 µM	> 30 µM	13.5 µM	12.9 µM	14.4 µM	10.5 µM	Cc1c(C)n(CCCN2CCN(C)CC2)c2ccc(C(=O)N3CCN(CCc4ccccc4)CC3)cc12 [Compound 4127, (2,3-dimethyl-1-(3-(4-methylpiperazin-1-yl)propyl)-1H-indol-5-yl)(4-phenethylpiperazin-1-yl)methanone]
